{"source": "patent US20100021938A1", "about": "“Diagnosis and Prediction of Alzheimer's Disease” (priority 2008, published 2010)", "key": {"human washed platelets": {"test_system": "human washed platelets", "assay": "sAPPα and sAPPβ released from activated human washed platelets, LC/ESI/MS/MS", "format": "cell-based", "details": "300 μl platelets at 600,000 cells/μl activated with 500 nM", "description": "FIG. 10: Detection of the two sAPP isoforms released from human platelets. 300 μl of human washed platelets at 600,000 cells/μl were activated with 500 nM U46,619. sAPPs released in the medium were immunoprecipitated and digested with trypsin. The peptides were analyzed as described above. The product ions y6 and y4 were monitored for TEEISEVK and MDAEFR, respectively. Chromatograms of the two product ions are shown for each sAPP isoform.\nInternal standards for each peptide were obtained by incorporation of a [^13C] labeled amino acid. Human washed platelets (600,000 cells/Ml, 300 μl) were activated with 500 nM of U46,619 and the release of sAPPs was analyzed after centrifuging the cells at 2,000×g for 15 min. After immunoprecipitation of the sAPPs and digestion with trypsin, 150 pg of MDAE[^13C]-FR and TEE[^13C]-ISEVK were added as internal standards and the samples were analyzed by LC/ESI/MS/MS using the LCQ Deca XP ion trap mass spectrometer (Thermo Scientific, Waltham, Mass.)."}, "human platelets": {"test_system": "human platelets", "assay": "sAPPα release by human platelets, Western blot of supernatant (antibody 6E10)", "format": "cell-based", "details": "for sAPPα release by washed platelets: collagen up to 5 μg/ml, ADP up to 25 μM", "description": "FIG. 2: sAPPα release is mediated through G protein-coupled receptors. Human platelets (600,000 cells/μl) were incubated with 20 μM arachidonic acid (AA), U46,619 (500 nM), PAR1-AP (100 μM), PAR4-AP (200 μM) or thrombin (1 U/ml) for 1 h. The cells were then pelleted at 10,000×g for 15 min and the levels of sAPPα in the supernatant were determined by Western blot analysis using the antibody 6E10 (Calbiochem).\nFIG. 3: The effect of arachidonic acid is mediated by the TP receptor. Left panel: Human platelets were incubated by increasing concentrations of U46,619 and sAPPa was analyzed in the supernatant as described for FIG. 2. Right panel: Human platelets were pre-incubated for 15 min with increasing concentration of an antagonist of the TP receptor, SQ29,548, prior addition of 7.5 μM of arachidonic acid. sAPPα release was analyzed by western blot.\nFIG. 4: Activation of PGI2 receptor inhibits sAPPa release triggered by U46,619. Human platelets were pre-incubated for 30 min with increasing concentrations of carbaprostacylin prior addition of 500 nM of U46,619. After 1 h the levels of sAPPa in the supernatant were determined by western blot analysis. Protein bands were scanned and the pixels integrated. sAPPa release is expressed as a percent of maximum where no CP was added.\nFIG. 5: PGE2 potentiates the effect of a sub-efficacious concentration of arachidonic acid. Washed platelets were pre-incubated for 2 min with increasing concentrations of PGE2 or vehicle prior addition of 0.5 μM of arachidonic acid. After 1 h, sAPPα release in the supernatant was determined by Western blot analysis as described in FIG. 2. Protein bands were scanned and the pixels integrated. sAPPα release is expressed as a percent of the maximum obtained with 7.5 nM PGE2 and 0.5 μM arachidonic acid.\nSecretion of sAPPα has been analyzed in human platelets in response to various agonists."}, "3xTg-AD mice": {"test_system": "3xTg-AD mice", "details": "cited from earlier work"}, "[1]": {"target": "T1, M1 muscarinic receptor (M1mAChR) (Homo sapiens, UniProt P11229)", "T1 construct": "host or cells: patients with AD (endogenous receptor, in vivo)", "T1 sequence (P11229 1-460)": "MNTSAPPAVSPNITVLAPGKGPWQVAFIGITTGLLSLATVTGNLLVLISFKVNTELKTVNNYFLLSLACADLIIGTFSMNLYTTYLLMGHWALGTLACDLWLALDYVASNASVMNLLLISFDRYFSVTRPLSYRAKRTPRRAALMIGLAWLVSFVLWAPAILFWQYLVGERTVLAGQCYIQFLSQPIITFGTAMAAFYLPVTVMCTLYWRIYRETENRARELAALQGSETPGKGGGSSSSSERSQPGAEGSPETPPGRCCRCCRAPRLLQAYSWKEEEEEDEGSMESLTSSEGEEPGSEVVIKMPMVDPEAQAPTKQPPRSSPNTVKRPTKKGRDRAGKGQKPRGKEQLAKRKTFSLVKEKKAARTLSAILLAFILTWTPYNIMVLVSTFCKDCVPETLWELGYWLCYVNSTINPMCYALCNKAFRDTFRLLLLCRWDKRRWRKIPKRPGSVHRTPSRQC", "details": "patients with AD (Nitsch et al., 2000); cited from earlier work"}, "[2]": {"details": "3xTg-AD mice (Caccamo et al., 2006)"}}}
{"compound": "CCCCC[C@H](O)/C=C/[C@@H]1[C@@H](C/C=C\\CCCC(=O)O)[C@H]2CO[C@@H]1C2", "note": "[U46,619]", "values": [{"measurement": "amount of sAPPα released", "setting": "human washed platelets", "value": 45, "unit": "pg"}, {"measurement": "amount of sAPPβ released", "setting": "human washed platelets", "value": 41, "unit": "pg"}, {"measurement": "sAPPα release in response to agonist", "setting": "human platelets; human platelets 600,000 cells/μl, 1 h incubation, U46,619 500 nM, PAR1-AP 100 μM, PAR4-AP 200 μM", "value": "gave the same response as 20 μM of arachidonic acid"}, {"measurement": "concentration giving maximal response of sAPPα release", "setting": "human platelets; human platelets, increasing concentrations", "value": 500, "unit": "nM"}]}
{"compound": "CCCCC/C=C\\C/C=C\\C/C=C\\C/C=C\\CCCC(=O)O", "note": "[arachidonic acid]", "values": [{"measurement": "concentration giving maximal effect on sAPPα release", "setting": "human platelets; human platelets", "value": 7.5, "unit": "µM"}]}
{"compound": "CCCCC[C@H](O)/C=C/[C@H]1[C@H](O)CC(=O)[C@@H]1C/C=C\\CCCC(=O)O", "note": "[PGE2]", "values": [{"measurement": "potentiation of sAPPα release by sub-efficacious arachidonic acid", "setting": "human platelets; concentrations higher than 10 nM, with 0.5 μM arachidonic acid", "value": "this potentiation effect was reversed"}, {"measurement": "sAPPα release, compound by itself", "setting": "human platelets; highest concentration used, without arachidonic acid", "value": "had no effect on sAPPα release"}, {"measurement": "potentiation of sAPPα release by sub-efficacious arachidonic acid", "setting": "human platelets; low nanomolar concentrations, pre-incubated 2 min prior to 0.5 μM arachidonic acid, 1 h", "value": "potentiates sAPPα release"}, {"measurement": "concentration giving maximum sAPPα release with 0.5 μM arachidonic acid", "setting": "human platelets; washed platelets, 0.5 μM arachidonic acid, 1 h", "value": 7.5, "unit": "nM"}]}
{"compound": "collagen", "values": [{"measurement": "sAPPα release by washed platelets", "setting": "human platelets", "value": "failed to trigger release of sAPPα"}]}
{"compound": "CCCCC[C@H](O)/C=C/[C@@H]1[C@H]2C/C(=C/CCCC(=O)O)C[C@H]2C[C@H]1O", "note": "[carbaprostacyclin]", "values": [{"measurement": "effect on sAPPα release triggered by U46,619", "setting": "human platelets; pre-incubated 30 min with increasing concentrations prior to 500 nM U46,619, 1 h", "value": "antagonized in a dose-dependent manner the effect of U46,619"}]}
{"compound": "Nc1ncnc2c1ncn2[C@@H]1O[C@H](COP(=O)(O)OP(=O)(O)O)[C@@H](O)[C@H]1O", "note": "[ADP]", "values": [{"measurement": "sAPPα release by washed platelets", "setting": "human platelets", "value": "had no effect on sAPPα release"}]}
{"compound": "O=C(O)CCC/C=C\\C[C@@H]1[C@H](CNNC(=O)Nc2ccccc2)[C@H]2CC[C@@H]1O2", "note": "[SQ29,548]", "values": [{"measurement": "effect on sAPPα release triggered by arachidonic acid", "setting": "human platelets; pre-incubated 15 min with increasing concentrations prior to 7.5 μM arachidonic acid", "value": "antagonized"}]}
{"compound": "CC[C@@H]1SC2(CCN(C)CC2)NC1=O", "note": "[AF267B]", "values": [{"measurement": "APP processing via the β-secretase pathway", "setting": "3xTg-AD mice; [2]", "value": "decreases APP processing via the β-secretase pathway"}, {"measurement": "development of amyloid pathology", "setting": "3xTg-AD mice; [2]", "value": "decreases development of amyloid pathology"}, {"measurement": "expression of ADAM 17/TACE", "setting": "3xTg-AD mice; Caccamo et al., 2006", "value": "increases expression of ADAM 17/TACE"}]}
{"compound": "CC1OC2(CS1)CN1CCC2CC1", "note": "(centres unmarked) [AF102B]", "values": [{"measurement": "levels of amyloid in cerebrospinal fluid", "setting": "[1]", "value": "decrease the levels of amyloid in cerebrospinal fluid"}]}
